The text below walks through data of ChEMBL document CHEMBL4699602, “Stapled and Xenopus Glucagon-Like Peptide 1 (GLP-1)-Based Dual GLP-1/Gastrin Receptor Agonists with Improved Metabolic Benefits in Rodent Models of Obesity and Diabetes” (J Med Chem, 2020).

pEC50: −log10 of the molar value. Where a SMILES comes first, the peptide text is derived from it.

Chain of Glucagon-like peptide 1 receptor (P43220 whole entry): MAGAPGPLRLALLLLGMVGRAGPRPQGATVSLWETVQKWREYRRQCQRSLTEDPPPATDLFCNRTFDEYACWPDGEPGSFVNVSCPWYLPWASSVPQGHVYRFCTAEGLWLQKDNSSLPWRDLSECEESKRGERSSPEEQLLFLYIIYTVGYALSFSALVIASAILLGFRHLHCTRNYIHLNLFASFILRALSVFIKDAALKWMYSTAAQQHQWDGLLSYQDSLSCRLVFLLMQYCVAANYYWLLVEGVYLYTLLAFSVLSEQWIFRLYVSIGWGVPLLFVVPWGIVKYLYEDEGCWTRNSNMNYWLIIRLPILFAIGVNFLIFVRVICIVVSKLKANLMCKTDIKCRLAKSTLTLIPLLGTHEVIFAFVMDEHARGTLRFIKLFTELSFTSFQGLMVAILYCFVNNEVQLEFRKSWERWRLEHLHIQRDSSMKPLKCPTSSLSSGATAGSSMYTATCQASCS

This assay concerns the target Glucagon-like peptide 1 receptor (Homo sapiens, UniProt P43220). Nature of the assay: Agonist activity at human GLP-1R expressed in HEK293 cells assessed as stimulation of cAMP accumulation incubated for 20 mins. It counts as functional, cell-based.
With `CC[C@H](C)[C@H](NC(=O)[C@H](CC(C)C)NC(=O)[C@H](Cc1c[nH]c2ccccc12)NC(=O)[C@H](CCC(=O)O)NC(=O)[C@H](CS)NC(=O)[C@H](Cc1ccccc1)NC(=O)[C@H](CCC(=O)O)NC(=O)[C@H](CCCCN)NC(=O)[C@H](C)NC(=O)[C@H](C)NC(=O)[C@H](CCC(=O)O)NC(=O)[C@H](CS)NC(=O)[C@H](CCC(=O)O)NC(=O)[C@H](CC(C)C)NC(=O)[C@H](Cc1ccc(O)cc1)NC(=O)[C@H](CCC(=O)O)NC(=O)[C@@H](NC(=O)[C@@H](NC(=O)[C@H](CC(=O)O)NC(=O)[C@H](CC(N)=O)NC(=O)[C@@H](NC(=O)[C@H](Cc1ccc(O)cc1)NC(=O)[C@@H](NC(=O)CNC(=O)[C@H](CCC(=O)O)NC(=O)C(C)(C)NC(=O)[C@@H](N)Cc1c[nH]cn1)[C@@H](C)O)[C@@H](C)O)C(C)C)[C@@H](C)O)C(=O)N[C@@H](CCCCN)C(=O)NCC(=O)N[C@@H](CCCCN)C(N)=O` (HELM PEPTIDE1{H.[Aib].E.G.T.Y.T.N.D.V.T.E.Y.L.E.C.E.A.A.K.E.F.C.E.W.L.I.K.G.K.[am]}$$$$V2.0), the pEC50 was 9.14.

`CC[C@H](C)[C@H](NC(=O)[C@H](CC(C)C)NC(=O)[C@H](Cc1c[nH]c2ccccc12)NC(=O)[C@H](CS)NC(=O)[C@@H](NC(=O)[C@H](Cc1ccccc1)NC(=O)[C@H](CCC(=O)O)NC(=O)[C@H](CCCCN)NC(=O)[C@H](C)NC(=O)[C@H](C)NC(=O)[C@H](CS)NC(=O)[C@H](CCC(=O)O)NC(=O)[C@H](CCC(=O)O)NC(=O)[C@H](CC(C)C)NC(=O)[C@H](Cc1ccc(O)cc1)NC(=O)[C@H](CCC(=O)O)NC(=O)[C@@H](NC(=O)[C@@H](NC(=O)[C@H](CC(=O)O)NC(=O)[C@H](CC(N)=O)NC(=O)[C@@H](NC(=O)[C@H](Cc1ccc(O)cc1)NC(=O)[C@@H](NC(=O)CNC(=O)[C@H](CCC(=O)O)NC(=O)C(C)(C)NC(=O)[C@@H](N)Cc1c[nH]cn1)[C@@H](C)O)[C@@H](C)O)C(C)C)[C@@H](C)O)[C@@H](C)CC)C(=O)N[C@@H](CCCCN)C(=O)NCC(=O)N[C@@H](CCCCN)C(=O)N1CCC[C@H]1C(=O)N[C@@H](CO)C(=O)N[C@@H](CO)C(=O)NCC(=O)N[C@@H](C)C(=O)N1CCC[C@H]1C(=O)N1CCC[C@H]1C(=O)N1CCC[C@H]1C(=O)N[C@@H](CO)C(N)=O` (HELM PEPTIDE1{H.[Aib].E.G.T.Y.T.N.D.V.T.E.Y.L.E.E.C.A.A.K.E.F.I.C.W.L.I.K.G.K.P.S.S.G.A.P.P.P.S.[am]}$$$$V2.0): the negative-log EC50 (pEC50) is 10.05.

With `CC[C@H](C)[C@H](NC(=O)[C@H](CC(C)C)NC(=O)[C@H](Cc1c[nH]c2ccccc12)NC(=O)[C@H](CS)NC(=O)[C@@H](NC(=O)[C@H](Cc1ccccc1)NC(=O)[C@H](CCC(=O)O)NC(=O)[C@H](CCCCN)NC(=O)[C@H](C)NC(=O)[C@H](C)NC(=O)[C@H](CS)NC(=O)[C@H](CCC(=O)O)NC(=O)[C@H](CCC(=O)O)NC(=O)[C@H](CC(C)C)NC(=O)[C@H](Cc1ccc(O)cc1)NC(=O)[C@H](CCC(=O)O)NC(=O)[C@@H](NC(=O)[C@@H](NC(=O)[C@H](CC(=O)O)NC(=O)[C@H](CC(N)=O)NC(=O)[C@@H](NC(=O)[C@H](Cc1ccc(O)cc1)NC(=O)[C@@H](NC(=O)CNC(=O)[C@H](CCC(=O)O)NC(=O)C(C)(C)NC(=O)[C@@H](N)Cc1c[nH]cn1)[C@@H](C)O)[C@@H](C)O)C(C)C)[C@@H](C)O)[C@@H](C)CC)C(=O)N[C@@H](CCCCN)C(=O)NCC(=O)N[C@@H](CCCCN)C(N)=O` (HELM PEPTIDE1{H.[Aib].E.G.T.Y.T.N.D.V.T.E.Y.L.E.E.C.A.A.K.E.F.I.C.W.L.I.K.G.K.[am]}$$$$V2.0), the pEC50 is 9.80.

On to `CC[C@H](C)[C@H](NC(=O)[C@H](Cc1ccccc1)NC(=O)[C@H](CCC(=O)O)NC(=O)[C@H](CS)NC(=O)[C@H](C)NC(=O)[C@H](C)NC(=O)[C@H](CCC(=O)O)NC(=O)[C@H](CCC(=O)O)NC(=O)[C@H](CCC(=O)O)NC(=O)[C@H](CC(C)C)NC(=O)[C@H](Cc1ccc(O)cc1)NC(=O)[C@H](CCC(=O)O)NC(=O)[C@@H](NC(=O)[C@@H](NC(=O)[C@H](CC(=O)O)NC(=O)[C@H](CC(N)=O)NC(=O)[C@@H](NC(=O)[C@H](Cc1ccc(O)cc1)NC(=O)[C@@H](NC(=O)CNC(=O)[C@H](CCC(=O)O)NC(=O)C(C)(C)NC(=O)[C@@H](N)Cc1c[nH]cn1)[C@@H](C)O)[C@@H](C)O)C(C)C)[C@@H](C)O)C(=O)N[C@@H](CCC(=O)O)C(=O)N[C@@H](Cc1c[nH]c2ccccc12)C(=O)N[C@@H](CC(C)C)C(=O)N[C@@H](CS)C(=O)N[C@@H](CCCCN)C(=O)NCC(=O)N[C@@H](CCCCN)C(=O)N1CCC[C@H]1C(=O)N[C@@H](CO)C(=O)N[C@@H](CO)C(=O)NCC(=O)N[C@@H](C)C(=O)N1CCC[C@H]1C(=O)N1CCC[C@H]1C(=O)N1CCC[C@H]1C(=O)N[C@@H](CO)C(N)=O` (HELM PEPTIDE1{H.[Aib].E.G.T.Y.T.N.D.V.T.E.Y.L.E.E.E.A.A.C.E.F.I.E.W.L.C.K.G.K.P.S.S.G.A.P.P.P.S.[am]}$$$$V2.0), for which the pEC50 was 9.59.

Take `CC[C@H](C)[C@H](NC(=O)[C@H](Cc1ccccc1)NC(=O)[C@H](CCC(=O)O)NC(=O)[C@H](CS)NC(=O)[C@H](C)NC(=O)[C@H](C)NC(=O)[C@H](CCC(=O)O)NC(=O)[C@H](CCC(=O)O)NC(=O)[C@H](CCC(=O)O)NC(=O)[C@H](CC(C)C)NC(=O)[C@H](Cc1ccc(O)cc1)NC(=O)[C@H](CCC(=O)O)NC(=O)[C@@H](NC(=O)[C@@H](NC(=O)[C@H](CC(=O)O)NC(=O)[C@H](CC(N)=O)NC(=O)[C@@H](NC(=O)[C@H](Cc1ccc(O)cc1)NC(=O)[C@@H](NC(=O)CNC(=O)[C@H](CCC(=O)O)NC(=O)C(C)(C)NC(=O)[C@@H](N)Cc1c[nH]cn1)[C@@H](C)O)[C@@H](C)O)C(C)C)[C@@H](C)O)C(=O)N[C@@H](CCC(=O)O)C(=O)N[C@@H](Cc1c[nH]c2ccccc12)C(=O)N[C@@H](CC(C)C)C(=O)N[C@@H](CS)C(=O)N[C@@H](CCCCN)C(=O)NCC(=O)N[C@@H](CCCCN)C(N)=O` (HELM PEPTIDE1{H.[Aib].E.G.T.Y.T.N.D.V.T.E.Y.L.E.E.E.A.A.C.E.F.I.E.W.L.C.K.G.K.[am]}$$$$V2.0): the pEC50 was 9.12.

`CC[C@H](C)[C@H](NC(=O)[C@H](CS)NC(=O)[C@H](CCC(=O)O)NC(=O)[C@H](CCCCN)NC(=O)[C@H](C)NC(=O)[C@H](C)NC(=O)[C@H](CCC(=O)O)NC(=O)[C@H](CCC(=O)O)NC(=O)[C@H](CCC(=O)O)NC(=O)[C@H](CC(C)C)NC(=O)[C@H](Cc1ccc(O)cc1)NC(=O)[C@H](CCC(=O)O)NC(=O)[C@@H](NC(=O)[C@@H](NC(=O)[C@H](CC(=O)O)NC(=O)[C@H](CC(N)=O)NC(=O)[C@@H](NC(=O)[C@H](Cc1ccc(O)cc1)NC(=O)[C@@H](NC(=O)CNC(=O)[C@H](CCC(=O)O)NC(=O)C(C)(C)NC(=O)[C@@H](N)Cc1c[nH]cn1)[C@@H](C)O)[C@@H](C)O)C(C)C)[C@@H](C)O)C(=O)N[C@@H](CCC(=O)O)C(=O)N[C@@H](Cc1c[nH]c2ccccc12)C(=O)N[C@@H](CC(C)C)C(=O)N[C@H](C(=O)N[C@@H](CCCCN)C(=O)N[C@@H](CS)C(=O)N[C@@H](CCCCN)C(=O)N1CCC[C@H]1C(=O)N[C@@H](CO)C(=O)N[C@@H](CO)C(=O)NCC(=O)N[C@@H](C)C(=O)N1CCC[C@H]1C(=O)N1CCC[C@H]1C(=O)N1CCC[C@H]1C(=O)N[C@@H](CO)C(N)=O)[C@@H](C)CC` (HELM PEPTIDE1{H.[Aib].E.G.T.Y.T.N.D.V.T.E.Y.L.E.E.E.A.A.K.E.C.I.E.W.L.I.K.C.K.P.S.S.G.A.P.P.P.S.[am]}$$$$V2.0): the pEC50 was 9.80.

In the case of `CC[C@H](C)[C@H](NC(=O)[C@H](CC(C)C)NC(=O)[C@H](Cc1c[nH]c2ccccc12)NC(=O)[C@H](CCC(=O)O)NC(=O)[C@@H](NC(=O)[C@H](CS)NC(=O)[C@H](CCC(=O)O)NC(=O)[C@H](CCCCN)NC(=O)[C@H](C)NC(=O)[C@H](C)NC(=O)[C@H](CCC(=O)O)NC(=O)[C@H](CCC(=O)O)NC(=O)[C@H](CCC(=O)O)NC(=O)[C@H](CC(C)C)NC(=O)[C@H](Cc1ccc(O)cc1)NC(=O)[C@H](CCC(=O)O)NC(=O)[C@@H](NC(=O)[C@@H](NC(=O)[C@H](CC(=O)O)NC(=O)[C@H](CC(N)=O)NC(=O)[C@@H](NC(=O)[C@H](Cc1ccc(O)cc1)NC(=O)[C@@H](NC(=O)CNC(=O)[C@H](CCC(=O)O)NC(=O)C(C)(C)NC(=O)[C@@H](N)Cc1c[nH]cn1)[C@@H](C)O)[C@@H](C)O)C(C)C)[C@@H](C)O)[C@@H](C)CC)C(=O)N[C@@H](CCCCN)C(=O)N[C@@H](CS)C(=O)N[C@@H](CCCCN)C(N)=O` (HELM PEPTIDE1{H.[Aib].E.G.T.Y.T.N.D.V.T.E.Y.L.E.E.E.A.A.K.E.C.I.E.W.L.I.K.C.K.[am]}$$$$V2.0), the pEC50 was 9.35.

On to `CC[C@H](C)[C@H](NC(=O)[C@H](CC(C)C)NC(=O)[C@H](Cc1c[nH]c2ccccc12)NC(=O)[C@H](CCC(=O)O)NC(=O)[C@H](CS)NC(=O)[C@H](Cc1ccccc1)NC(=O)[C@H](CCC(=O)O)NC(=O)[C@H](CCCCN)NC(=O)[C@H](C)NC(=O)[C@H](C)NC(=O)[C@H](CCC(=O)O)NC(=O)[C@H](CCC(=O)O)NC(=O)[C@H](CCC(=O)O)NC(=O)[C@H](CC(C)C)NC(=O)[C@H](Cc1ccc(O)cc1)NC(=O)[C@H](CCC(=O)O)NC(=O)[C@@H](NC(=O)[C@@H](NC(=O)[C@H](CC(=O)O)NC(=O)[C@H](CC(N)=O)NC(=O)[C@@H](NC(=O)[C@H](Cc1ccc(O)cc1)NC(=O)[C@@H](NC(=O)CNC(=O)[C@H](CCC(=O)O)NC(=O)C(C)(C)NC(=O)[C@@H](N)Cc1c[nH]cn1)[C@@H](C)O)[C@@H](C)O)C(C)C)[C@@H](C)O)C(=O)N[C@@H](CCCCN)C(=O)NCC(=O)N[C@@H](CS)C(=O)N1CCC[C@H]1C(=O)N[C@@H](CO)C(=O)N[C@@H](CO)C(=O)NCC(=O)N[C@@H](C)C(=O)N1CCC[C@H]1C(=O)N1CCC[C@H]1C(=O)N1CCC[C@H]1C(=O)N[C@@H](CO)C(N)=O` (HELM PEPTIDE1{H.[Aib].E.G.T.Y.T.N.D.V.T.E.Y.L.E.E.E.A.A.K.E.F.C.E.W.L.I.K.G.C.P.S.S.G.A.P.P.P.S.[am]}$$$$V2.0), for which the pEC50 was 9.68.

For orientation: pEC50 means the negative decadic logarithm of the EC50, by convention in mol/L.
